According to patent publication US20260130885A1, “ANTIMICROBIAL COMPOSITIONS, PHARMACEUTICAL COMPOSITIONS AND USE THEREOF” (priority 2022, published 2026):
Converted amounts (≈) assume the structure as drawn. Where two headings read alike, the source gives them in different places.

Experiments:
Type in all cases: cell-based, Staphylococcus aureus
MRSA USA300 = assay: Antibacterial activity assay (MIC by broth microdilution, MBC by subculture)
Protocol: The antimicrobial activity was based on MIC and MBC; MIC is the minimum inhibitory concentration and MBC is the minimum bactericidal concentration. The MIC of individual test agents against MRSA USA300 strains was determined using the broth microdilution method according to CLSI guidelines. Briefly, overnight bacterial cultures in LB medium were diluted 1:50 in fresh LB medium and incubated at 37° C. until reaching an OD600 of 0.5 to 0.6. Bacterial suspensions were diluted to a final concentration of 5×10^5 cfu/mL in fresh CAMHB and then exposed to each test agent at increasing doses in triplicate in 96-well plates for 24 hours at 37° C. The MIC of each agent was defined as the lowest concentration without visible bacterial growth. […] The lowest broth dilution that had no viable bacteria was considered the MBC.
Then, the combination effect was measured by calculating their corresponding fractional inhibitory concentration index (FICI) with the equation ΣFIC (FICi)=FICA+FICB=(CombA/MICA)+(CombB/MICB), where MICA and MICB are the MICs of drugs A and B alone, respectively, and CombA and CombB are the concentrations of drugs A and B in combination, respectively. […] was defined as an FICI≤0.5, no interaction was defined as an FICI>0.5-4.0, and antagonism was defined as an FICI>4.

MRSA ATCC33592 = assay: Antibacterial activity assay (MIC, broth microdilution); settings: for MIC: Staphylococcus aureus
MRSA ATCC43300 = assay: as above; settings: for MIC: Staphylococcus aureus
MRSA SCCmec VT = assay: as above; settings: for MIC: Staphylococcus aureus, MRSA
VRSA SJC1200 = assay: as above; settings: for MIC: Staphylococcus aureus, VRSA
S. aureus NCTC8325 = assay: as above; settings: for MIC: Staphylococcus aureus
MRSA ATCC33591 = assay: as above; settings: for MIC: Staphylococcus aureus
S. aureus ATCC29213 = assay: as above; settings: for MIC: Staphylococcus aureus
S. aureus DAP-NS = assay: as above; settings: for MIC: Staphylococcus aureus
MRSA ATCC49476 = assay: as above; settings: for MIC: Staphylococcus aureus
[1] = Staphylococcus aureus, amide compound alone, read-out: MBC
[2] = Staphylococcus aureus, amide compound alone, read-out: MIC

SMILES: O=C(Nc1ccc2c(c1)OC(F)(F)O2)Nc1ccc(Cl)c(C(F)(F)F)c1 [PK150]
- MBC (MRSA USA300; +8 mg/L DHA): 0.98 ng/mL
- MIC (MRSA USA300; +8 mg/L DHA): 0.49 ng/mL
- MIC (MRSA USA300; +8 mg/L DHA, MRSA USA300 (Table 4)): 0.49 ng/mL
- synergy of the amide compound with DHA (in words) (MRSA USA300; MIC after adding DHA is less than ¼ of its original MIC, 8 mg/L DHA): synergistic antibacterial activity with DHA
- combination effect (MRSA USA300; MIC, +8 mg/L DHA, MRSA USA300 (Table 4)): (Syn) (Synergy (Syn) was defined as an FICI≤0.5)
- MBC (MRSA USA300; [1]): 2000 ng/mL
- MIC (MRSA USA300; [2]): 62.5 ng/mL
- MIC (MRSA USA300; agent alone, MRSA USA300 (Table 4)): 62.5 ng/mL
- combination effect (MRSA ATCC33592; MIC, +8 mg/L DHA): (Syn) (Synergy (Syn) was defined as an FICI≤0.5)
- MIC (MRSA ATCC33592; +8 mg/L DHA): 0.98 ng/mL (≈ 2.48 nM)
- MIC (MRSA ATCC33592; agent alone): 62.5 ng/mL (≈ 158 nM)
- combination effect (MRSA ATCC43300; MIC, +8 mg/L DHA): (Syn) (Synergy (Syn) was defined as an FICI≤0.5)
- MIC (MRSA ATCC43300; +8 mg/L DHA): 0.98 ng/mL (≈ 2.48 nM)
- MIC (MRSA ATCC43300; agent alone): 62.5 ng/mL (≈ 158 nM)
- combination effect (MRSA SCCmec VT; MIC, +8 mg/L DHA): (Syn) (Synergy (Syn) was defined as an FICI≤0.5)
- MIC (MRSA SCCmec VT; +8 mg/L DHA): 0.98 ng/mL (≈ 2.48 nM)
- MIC (MRSA SCCmec VT; agent alone): 125 ng/mL (≈ 317 nM)
- combination effect (VRSA SJC1200; MIC, +8 mg/L DHA): (Syn) (Synergy (Syn) was defined as an FICI≤0.5)
- MIC (VRSA SJC1200; +8 mg/L DHA): 0.12 ng/mL (≈ 0.304 nM)
- MIC (VRSA SJC1200; agent alone): 125 ng/mL (≈ 317 nM)
- combination effect (S. aureus NCTC8325; MIC, +8 mg/L DHA): (Syn) (Synergy (Syn) was defined as an FICI≤0.5)
- MIC (S. aureus NCTC8325; NCTC8325, +8 mg/L DHA): 0.035 ng/mL (≈ 0.0887 nM)
- MIC (S. aureus NCTC8325; NCTC8325, agent alone): 62.5 ng/mL (≈ 158 nM)
- combination effect (MRSA ATCC33591; MIC, +8 mg/L DHA): | (Syn) (Synergy (Syn) was defined as an FICI≤0.5)
- MIC (MRSA ATCC33591; +8 mg/L DHA): 0.061 ng/mL (≈ 0.155 nM)
- MIC (MRSA ATCC33591; agent alone): 62.5 ng/mL (≈ 158 nM)
- combination effect (S. aureus ATCC29213; MIC, +8 mg/L DHA): (Syn) (Synergy (Syn) was defined as an FICI≤0.5)
- MIC (S. aureus ATCC29213; ATCC29213, +8 mg/L DHA): 3.9 ng/mL (≈ 9.88 nM)
- MIC (S. aureus ATCC29213; ATCC29213, agent alone): 62.5 ng/mL (≈ 158 nM)
- combination effect (S. aureus DAP-NS; MIC, +8 mg/L DHA): (Syn) (Synergy (Syn) was defined as an FICI≤0.5)
- MIC (S. aureus DAP-NS; +8 mg/L DHA): 15.6 ng/mL (≈ 39.5 nM)
- MIC (S. aureus DAP-NS; agent alone): 62.5 ng/mL (≈ 158 nM)
- combination effect (MRSA ATCC49476; MIC, +8 mg/L DHA): | (Syn) (Synergy (Syn) was defined as an FICI≤0.5)
- MIC (MRSA ATCC49476; +8 mg/L DHA): 0.015 ng/mL (≈ 0.038 nM)
- MIC (MRSA ATCC49476; agent alone): 62.5 ng/mL (≈ 158 nM)

SMILES: O=C(Nc1cc(Cl)cc(Cl)c1)C(Cc1ccccc1)C(=O)Nc1cc(Cl)cc(Cl)c1 [SC5043]
- MBC (MRSA USA300; +8 mg/L DHA): 15.6 ng/mL
- MIC (MRSA USA300; +8 mg/L DHA): 15.6 ng/mL
- MBC (MRSA USA300; [1]): 4000 ng/mL
- MIC (MRSA USA300; [2]): 2000 ng/mL

SMILES: O=C(Nc1cc(C(F)(F)F)cc(C(F)(F)F)c1)C(Cc1ccccc1)C(=O)Nc1cc(C(F)(F)F)cc(C(F)(F)F)c1 [SC5044]
- MBC (MRSA USA300; +8 mg/L DHA): 7.8 ng/mL
- MIC (MRSA USA300; +8 mg/L DHA): 0.975 ng/mL
- MBC (MRSA USA300; [1]): 2000 ng/mL
- MIC (MRSA USA300; [2]): 500 ng/mL

SMILES: O=C(NC1CCCCC1)C(CCCl)C(=O)NC1CCCCC1 [SC5048]
- MBC (MRSA USA300; +8 mg/L DHA): >64000 ng/mL
- MIC (MRSA USA300; +8 mg/L DHA): >64000 ng/mL
- MBC (MRSA USA300; [1]): > 64000 ng/mL
- MIC (MRSA USA300; [2]): > 64000 ng/mL

SMILES: CCCNC(=O)C(CCCl)C(=O)Nc1ccc(Cl)c(C(F)(F)F)c1 (centres unmarked) [SC5049]
- MBC (MRSA USA300; +8 mg/L DHA): 8000 ng/mL
- MIC (MRSA USA300; +8 mg/L DHA): 8000 ng/mL
- MBC (MRSA USA300; [1]): > 64000 ng/mL
- MIC (MRSA USA300; [2]): > 64000 ng/mL

SMILES: C=CCNC(=O)C(CCCl)C(=O)Nc1ccc(Cl)c(C(F)(F)F)c1 (centres unmarked) [SC5050]
- MBC (MRSA USA300; +8 mg/L DHA): 16000 ng/mL
- MIC (MRSA USA300; +8 mg/L DHA): 8000 ng/mL
- MBC (MRSA USA300; [1]): > 64000 ng/mL
- MIC (MRSA USA300; [2]): > 64000 ng/mL

SMILES: C=CCNC(=O)C(CCCl)C(=O)NCC=C [SC5052]
- MBC (MRSA USA300; +8 mg/L DHA): 2000 ng/mL
- MIC (MRSA USA300; +8 mg/L DHA): 1000 ng/mL
- MBC (MRSA USA300; [1]): > 64000 ng/mL
- MIC (MRSA USA300; [2]): > 64000 ng/mL

SMILES: O=C(Nc1ccc(Cl)c(C(F)(F)F)c1)C(CCCl)C(=O)NC1CCCCC1 (centres unmarked) [SC5053]
- MBC (MRSA USA300; +8 mg/L DHA): 2000 ng/mL
- MIC (MRSA USA300; +8 mg/L DHA): 1000 ng/mL
- MBC (MRSA USA300; [1]): > 64000 ng/mL
- MIC (MRSA USA300; [2]): > 64000 ng/mL

SMILES: CN(C(=O)C(CCCl)C(=O)N(C)c1ccc(Cl)c(C(F)(F)F)c1)c1ccc(Cl)c(C(F)(F)F)c1 [SC5101]
- MBC (MRSA USA300; +8 mg/L DHA): >64000 ng/mL
- MIC (MRSA USA300; +8 mg/L DHA): >64000 ng/mL
- MBC (MRSA USA300; [1]): > 64000 ng/mL
- MIC (MRSA USA300; [2]): > 64000 ng/mL

SMILES: CN(C(=O)C(CCCl)C(=O)N(C)c1cc(Cl)cc(Cl)c1)c1cc(Cl)cc(Cl)c1 [SC5102]
- MBC (MRSA USA300; +8 mg/L DHA): >64000 ng/mL
- MIC (MRSA USA300; +8 mg/L DHA): >64000 ng/mL
- MBC (MRSA USA300; [1]): > 64000 ng/mL
- MIC (MRSA USA300; [2]): > 64000 ng/mL

SMILES: O=C(Nc1ccc(Cl)c(C(F)(F)F)c1)C(CCCCl)C(=O)Nc1ccc(Cl)c(C(F)(F)F)c1 [SC5103]
- MBC (MRSA USA300; +8 mg/L DHA): 7.8 ng/mL
- MIC (MRSA USA300; +8 mg/L DHA): 3.9 ng/mL
- MBC (MRSA USA300; [1]): 2000 ng/mL
- MIC (MRSA USA300; [2]): 250 ng/mL

SMILES: O=C(Nc1cc(Cl)cc(Cl)c1)C(F)(CCCl)C(=O)Nc1cc(Cl)cc(Cl)c1 [SC5104]
- MBC (MRSA USA300; +8 mg/L DHA): 7.8 ng/mL
- MIC (MRSA USA300; +8 mg/L DHA): 7.8 ng/mL
- MBC (MRSA USA300; [1]): 4000 ng/mL
- MIC (MRSA USA300; [2]): 500 ng/mL

SMILES: O=C(Nc1ccc(Cl)c(C(F)(F)F)c1)C(F)(CCCl)C(=O)Nc1ccc(Cl)c(C(F)(F)F)c1 [SC5105]
- MBC (MRSA USA300; +8 mg/L DHA): 125 ng/mL
- MIC (MRSA USA300; +8 mg/L DHA): 125 ng/mL
- MBC (MRSA USA300; [1]): > 64000 ng/mL
- MIC (MRSA USA300; [2]): > 64000 ng/mL
